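Where inhibition never reached the appropriate level, the endpoint shown equals the highest concentration tested. Otherwise, values were interpolated linearly from a five-concentration, 48-hour dose response in 96-well plates. GI50 = concentration required for 50% inhibition of growth. TGI: concentration producing complete growth inhibition.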
What was measured:
Test in all cases: growth of human tumour cells (NCI), 48 h
[1] = system: HCT-15 colon
[2] = system: SNB-19 CNS
[3] = system: SN12C renal
[4] = system: NCI-H460 lung
[5] = system: OVCAR-8 ovarian
[6] = system: SF-539 CNS
[7] = system: IGROV1 ovarian
[8] = system: SR leukemia
[9] = system: NCI-H522 lung
[10] = system: HT29 colon

Compound	GI50 [1] [µM]	TGI [1] [µM]	GI50 [2] [µM]	TGI [2] [µM]	GI50 [3] [µM]	TGI [3] [µM]	GI50 [4] [µM]	TGI [4] [µM]	GI50 [5] [µM]	TGI [5] [µM]	GI50 [6] [µM]	TGI [6] [µM]	GI50 [7] [µM]	TGI [7] [µM]	GI50 [8] [µM]	TGI [8] [µM]	GI50 [9] [µM]	TGI [9] [µM]	GI50 [10] [µM]	TGI [10] [µM]
O=[N+]([O-])/C=C\c1ccc(Cl)c(Cl)c1	3.23	17	3.77	16.7	4.31	62.5	3.64	25.1	1.94	4.16	3.83	18.2	0.602	2.02						
COc1ccc(/C(=C2\O[C@@H]([C@H]3COC(C)(C)O3)[C@H]3OC(C)(C)O[C@@H]23)c2cc(OC)c(OC)c(OC)c2)cc1O	4.51	> 100	4.28	> 100	5.62	> 100	4.31	> 100	5.27	> 100	2.59	6.63	33.2	> 100	6.27	> 100	2.73	9.08		
O=C1C=CC(=Nc2ccc3c(c2)C(Br)c2ccccc2-3)O1 (stereo not drawn)		> 100		> 100		49.9		> 100		> 100		> 100		> 100		> 100		81.7		
COc1cc(/C=C/c2cc(/C=C/c3ccc(O)c(OC)c3)n(-c3ccccc3)n2)ccc1O					0.313	2.2			0.466	3.55			0.532	4.02	0.0353	> 100			0.724	4.1
CC1=C(C(=O)Nc2ccc([N+](=O)[O-])cc2)C(c2ccc(N(C)C)cc2)C(C(=O)Nc2ccc([N+](=O)[O-])cc2)=C(C)N1				> 100				45.3		97.9		50.5		61.9				25.6		46.9
COc1ccc(OC)c(NC(=O)C(=O)C(C(C)=O)c2nc3ccc(Cl)cc3[nH]c2=O)c1 (stereo not drawn)		> 50		> 50		> 50		> 50		> 50		> 50		> 50						> 50
Clc1ccc(C2N3CCCCC3[C@@H]3c4[nH]c5ccccc5c4CCN23)cc1 (stereo partly drawn)		> 100		> 100		> 100		> 100		> 100		> 100		> 100						49.9
CC12CC[C@@H](C(C)(C)O)C1[C@@H](O)CC1(C)C2CCC2[C@@]3(C)CC[C@H](O)C(C)(C)C3C(O)C[C@]21C (stereo partly drawn)		29.4		46.5		29.9		37.5		41.2		35.3		39.5						31.1
Cn1cc(-c2cnc3ccc(NC(=O)Nc4ccc(F)c(Br)c4)cc3n2)cn1	1.92	4.45	2.66	10.4	1.87	4.79	1.74	3.77	1.83	4.34	1.75	3.4	1.6	3.49			1.71	4.75		
CCCCCCCCCCCCCC(=O)OC1CC(=O)OC1CO (stereo not drawn)		38.4		> 100		> 100		> 100		> 100		> 100		> 100						> 100
N#CC(C(=N/O)/C(=N/O)C(C#N)c1ccc(Cl)cc1)c1ccc(Cl)cc1 (stereo not drawn)		> 100		> 100		> 100		> 100		> 100		> 100		> 100						> 100
O=C1NNC=Nc2ccc(cc2)S(=O)(=O)c2ccc(cc2)N=CNNC1=O		> 100		> 100		> 100		> 100		> 100		> 100		> 100				> 100		> 100
N#CSCC1CC(O)(c2ccccc2)C(c2ccccc2)C(c2ccc(Cl)cc2)O1 (stereo not drawn)	1.43	3.38			1.41	2.91			1.78	3.83	1.76	3.17	2	3.74	1.9	4.95			1.02	2.45
Cc1ccc(CS/C(=C\c2ccc([N+](=O)[O-])cc2)C(=O)c2ccc(F)cc2)cc1			1.98	4.36	2.98	9.48	6.44	22.5	3.42	19.4	3.22	10.8	4.49	31.3					1.78	4.26
CSc1ccc(C2=NN(C(C)=O)C(c3cc(C)cs3)C2)cc1 (stereo not drawn)	24.6	> 100	37	> 100	26.2	> 100	27.3	> 100	32	> 100	39.8	> 100	29.7	> 100			17.9	74.9	24.9	> 100
O=C(CI)NC1Oc2ccccc2-c2oc(=O)c(-c3ccccc3)cc21 (stereo not drawn)			2.64	7.54					1.79	4.47	1.73	3.13			0.357	> 100				
COC1C(CN[N+](=O)CC2OC3OC(C)(C)OC3C2OC)OC2OC(C)(C)OC21 (stereo not drawn)		> 100		> 100		> 100		> 100		> 100		> 100		> 100						> 100
CCCCNC1=C(C(=O)OCC)C(=O)CO1		> 100		> 100		> 100		> 100		> 100		> 100		> 100				> 100		> 100
CCOC(=O)NC(=O)c1cn(C2OC(COC(=O)CCCCCCCCC(=O)OCC3OC(n4cc(C(=O)NC(=O)OCC)c(=O)[nH]c4=O)C(O)C3O)C(O)C2O)c(=O)[nH]c1=O (stereo not drawn)		> 100		> 100		> 100		> 100		> 100		> 100		> 100		> 100				> 100

From PubChem BioAssay (NCI)
